“Also recorded” adds a separate entry of the source.
What was measured:
[1] = system: Aβ42-expressing flies (elav-Gal4/Y; UAS-Aβ42/+); assay: Pavlovian olfactory associative immediate memory in Aβ42-expressing flies after drug feeding
Protocol: Flies were raised and maintained at room temperature (22-24° C.).

[2] = system: Tg(APPswe.PSEN1dE9) double transgenic mice; assay: Morris water maze in AD-model double transgenic mice; type: in vivo, mouse; details: for Rescue of memory loss in Morris water maze: 8-month-old mice, lavage once daily from 9 days before training until end of experiments (18 days)
human EGFR = target: T1, human EGFR (Homo sapiens, UniProt P00533); assay: p-EGFR level in COS-7 cells transfected with human EGFR wt (Western blot); type: cell-based; details: 15 min; for Level of p-EGFR or activated EGFR after Aβ42 application: 25 μg/ml Aβ42 preparation
T1 construct: expressed in transfected cells; host or cells: COS-7 (monkey kidney), Lipofectamine 2000, plasmid from Dr. Parsons

[3] = EGFR inhibitor 0.01, 0.1, 1, 10 μg/ml, fed 4 hours each day for 7 days, 10-day-old Aβ42-expressing males

Level of p-EGFR or activated EGFR after Aβ42 application (human EGFR)	Molecule	Aβ42-induced memory loss (immediate memory) [1, 3]	Rescue of memory loss in Morris water maze [2]	other results
–	C#Cc1cccc(Nc2ncnc3cc(OCCOC)c(OCCOC)cc23)c1 [Er, N-(3-ethynylphenyl)-6,7-bis(2-methoxyethoxy)quinazolin-4-amine]	prevented the memory loss	–	–
–	COc1cc2ncnc(Nc3ccc(F)c(Cl)c3)c2cc1OCCCN1CCOCC1 [Ge, N-(3-chloro-4-fluoro-phenyl)-7-methoxy-6-(3-morpholin-4-ylpropoxy)quinazolin-4-amine]	prevented the memory loss	sufficient to rescue the memory loss; also recorded: rescuing effects were observed	Effect of two-month drug feeding on memory loss ([2]; drug feeding from 6- to 8-month-old): produced a positive effect
–	CC12CC3CC(C)(C1)CC(N)(C3)C2 [memantine]	–	unable to improve the memory-loss phenotype	Rescue of memory loss in Morris water maze ([2]; listed as Mem): No improvement in memory; Rescue of memory loss in Morris water maze ([2]; listed as momentine): had no effect; Aβ42-induced memory loss (immediate memory) ([1]; memantine 20 μg/ml, fed 4 hours each day for 7 consecutive days, memory at day 10 post-eclosion, male flies): capable of preventing the memory loss
significantly elevated	Aβ42 from oligomeric preparation: Synthetic and recombinant wild type Aβ42 (AnaSpec) incubated at 4° C. for 24 h to form oligomers	–	–	Expression levels of EGFRs after Aβ42 application (human EGFR; 25 μg/ml Aβ42 from oligomeric preparation): not affected
opposite effect	monomeric Aβ42 preparation: Aβ42 peptide preparation abundant in monomers	–	–	–

Reference: patent publication US9271987B2, “Methods and compositions for treating Alzheimer's disease” (Cold Spring Harbor Laboratory, priority 2011, dated 2016)
